According to US4112097A, “Antihypertensive agents” (Abbott Laboratories, priority 1977, dated 1978):
Where a name gives a salt, the structure may show the parent alone. Read-outs that look alike come from different tables or passages of the source.

Experiments:
[1] = Acute intravenous toxicity in mice; assay type: in vivo, mouse; conditions: mouse, in vivo, iv, mice male and female, read-out: LD50 (95% Confidence Limits)
mice (male and female) = assay: Acute intravenous toxicity in mice; assay type: in vivo, mouse; conditions: mice, administered within twenty minutes following preparation
[2] = test system: spontaneously hypertensive (SH) rats; assay: Antihypertensive effect (blood pressure and heart rate) in spontaneously hypertensive rats; assay type: in vivo, rat; conditions: for Percent Change BP (blood pressure) / Percent Change HR (heart rate): N=4, mean
Method: The screening is conducted as follows:
Male spontaneously hypertensive (SH) rats are trained to be restrained in a wire mesh cylinder in a warming box, at least two training cycles being conducted before testing. The rats are warmed for about 1/2 hour period to blood pressure measurement, the warming box being maintained at a constant temperature of 36° C.
An occluding cuff attached to the programed sphymomanometer is placed near the base of the tail of each rat and the pressure in the cuff is increased automatically from 0 to 250 milimeters of mercury (mm Hg) at a rate of 10 mm Hg per second. The total time for each cycle of inflation and deflation of the cuff is 50 seconds and the interval between cycles is one minute.
A photocell is placed distal to the cuff to record the pulses due to forward motion of blood flow with each heart beat. As the pressure in the cuff increases, the pulse disappears completely at a point where cuff pressure equals or exceeds the arterial blood pressure and it reappears during deflation at approximately the same pressure. Five interference free signals for deflation are recorded for each rat. Rats with a blood pressure of 180 mm Hg or more during the control period are used in the study. Blood pressure and heart rate readings are recorded on a model VII Grass polygraph at intervals of 1, 3, 5 and 24 hours after administration of the drug.

physchem = conditions: water
Method: The water in the filtrate was removed in vacuo and the residue weighed and found to be 16.7 mg.

[3] = background statement on prazosin; cited from earlier work
[4] = cited from earlier work
[5] = intraperitoneal 0.3 mg/kg, 1 hour
[6] = intraperitoneal 0.3 mg/kg, 3 hours
[7] = intraperitoneal 0.3 mg/kg, 5 hours
[8] = intraperitoneal 0.3 mg/kg, 24 hours
[9] = intraperitoneal 1 mg/kg, 1 hour
[10] = intraperitoneal 1 mg/kg, 3 hours
[11] = intraperitoneal 1 mg/kg, 5 hours
[12] = intraperitoneal 1 mg/kg, 24 hours
[13] = intraperitoneal 3 mg/kg, 1 hour
[14] = intraperitoneal 3 mg/kg, 3 hours
[15] = intraperitoneal 3 mg/kg, 5 hours
[16] = intraperitoneal 3 mg/kg, 24 hours
[17] = intraperitoneal 10 mg/kg, 1 hour
[18] = intraperitoneal 10 mg/kg, 3 hours
[19] = intraperitoneal 10 mg/kg, 5 hours
[20] = intraperitoneal 10 mg/kg, 24 hours
[21] = intraperitoneal 30 mg/kg, 1 hour
[22] = intraperitoneal 30 mg/kg, 3 hours
[23] = intraperitoneal 30 mg/kg, 5 hours
[24] = intraperitoneal 30 mg/kg, 24 hours

## COc1cc2nc(N3CCN(C(=O)C4CCCO4)CC3)nc(N)c2cc1OC (stereo not shown) [2[4-(Tetrahydro-2-Furoyl)Piperazinyl]-4-Amino-6,7-Dimethoxyquinazoline Hydrochloride]
[1]; injected 24 hours after formulation (B)
  LD50: 253 mg/kg
[1]; injected immediately after formulation (A)
  LD50: 259 mg/kg
Mice (male and female)
  toxicity in comparison to the compound of Formula I: significantly lower toxicity than the compound of Formula I
[2]; intraperitoneal 30 mg./kg.
  duration of the effect (decrease in blood pressure): greater than 24 hours
[2]; oral, 3 and 10 mg./kg., up to approximately
  fall in blood pressure: ≤ 40%
physchem
  solubility: 590 mg/mL

## COc1cc2nc(N3CCN(C(=O)c4ccco4)CC3)nc(N)c2cc1OC [Formula I, 2-[4-(2-furoyl)-1-piperazine-1-yl]-4-amino-6,7-dimethoxyquinazoline, reference compound]
[2]; [5]
  Percent Change BP (blood pressure): -20.8%
  Percent Change HR (heart rate): -2.5%
[2]; [6]
  Percent Change BP (blood pressure): -18.3%
  Percent Change HR (heart rate): -0.5%
[2]; [7]
  Percent Change BP (blood pressure): -13.8%
  Percent Change HR (heart rate): -12.0%
[2]; [8]
  Percent Change BP (blood pressure): -4.3%
  Percent Change HR (heart rate): -5.0%
[2]; [9]
  Percent Change BP (blood pressure): -20.0%
  Percent Change HR (heart rate): 2.8%
[2]; [10]
  Percent Change BP (blood pressure): -15.3%
  Percent Change HR (heart rate): 1.8%
[2]; [11]
  Percent Change BP (blood pressure): -13.5%
  Percent Change HR (heart rate): 10.5%
[2]; [12]
  Percent Change BP (blood pressure): 3.5%
  Percent Change HR (heart rate): 12.8%
[2]; [13]
  Percent Change BP (blood pressure): -45.0%
  Percent Change HR (heart rate): 0.3%
[2]; [14]
  Percent Change BP (blood pressure): -31.5%
  Percent Change HR (heart rate): -6.5%
[2]; [15]
  Percent Change BP (blood pressure): -26.3%
  Percent Change HR (heart rate): -17.0%
[2]; [16]
  Percent Change BP (blood pressure): -2.3%
  Percent Change HR (heart rate): -4.0%
[2]; [17]
  Percent Change BP (blood pressure): -41.0%
  Percent Change HR (heart rate): 5.8%
[2]; [18]
  Percent Change BP (blood pressure): -34.0%
  Percent Change HR (heart rate): 14.8%
[2]; [19]
  Percent Change BP (blood pressure): -27.0%
  Percent Change HR (heart rate): 7.3%
[2]; [20]
  Percent Change BP (blood pressure): -13.0%
  Percent Change HR (heart rate): -7.5%
[2]; [21]
  Percent Change BP (blood pressure): -43.3%
  Percent Change HR (heart rate): -1.8%
[2]; [22]
  Percent Change BP (blood pressure): -48.5%
  Percent Change HR (heart rate): 4.8%
[2]; [23]
  Percent Change BP (blood pressure): -55.5%
  Percent Change HR (heart rate): 3.5%
[2]; [24]
  Percent Change BP (blood pressure): -24.5%
  Percent Change HR (heart rate): -6.5%
[2]; oral 0.03 mg/kg, 1 hour
  Percent Change BP (blood pressure): -4.5%
  Percent Change HR (heart rate): 4.8%
[2]; oral 0.03 mg/kg, 3 hours
  Percent Change BP (blood pressure): -0.8%
  Percent Change HR (heart rate): -9.3%
[2]; oral 0.03 mg/kg, 5 hours
  Percent Change BP (blood pressure): -11.5%
  Percent Change HR (heart rate): -9.8%
[2]; oral 0.03 mg/kg, 24 hours
  Percent Change BP (blood pressure): 1.3%
  Percent Change HR (heart rate): -2.0%
[2]; oral 0.1 mg/kg, 1 hour
  Percent Change BP (blood pressure): -9.8%
  Percent Change HR (heart rate): 13.5%
[2]; oral 0.1 mg/kg, 3 hours
  Percent Change BP (blood pressure): -17.5%
  Percent Change HR (heart rate): 18.3%
[2]; oral 0.1 mg/kg, 5 hours
  Percent Change BP (blood pressure): -22.8%
  Percent Change HR (heart rate): 1.5%
[2]; oral 0.1 mg/kg, 24 hours
  Percent Change BP (blood pressure): -1.3%
  Percent Change HR (heart rate): 3.5%
[2]; oral 0.3 mg/kg, 1 hour
  Percent Change BP (blood pressure): -32.8%
  Percent Change HR (heart rate): -5.5%
[2]; oral 0.3 mg/kg, 3 hours
  Percent Change BP (blood pressure): -33.8%
  Percent Change HR (heart rate): -5.0%
[2]; oral 0.3 mg/kg, 5 hours
  Percent Change BP (blood pressure): -30.0%
  Percent Change HR (heart rate): -13.8%
[2]; oral 0.3 mg/kg, 24 hours
  Percent Change BP (blood pressure): -12.3%
  Percent Change HR (heart rate): 3.0%
[2]; oral 1 mg/kg, 1 hour
  Percent Change BP (blood pressure): -31.8%
  Percent Change HR (heart rate): 2.0%
[2]; oral 1 mg/kg, 3 hours
  Percent Change BP (blood pressure): -17.8%
  Percent Change HR (heart rate): 6.8%
[2]; oral 1 mg/kg, 5 hours
  Percent Change BP (blood pressure): -19.5%
  Percent Change HR (heart rate): -1.0%
[2]; oral 1 mg/kg, 24 hours
  Percent Change BP (blood pressure): -2.3%
  Percent Change HR (heart rate): 10.0%
[2]; oral 3 mg/kg, 1 hour
  Percent Change BP (blood pressure): -19.3%
  Percent Change HR (heart rate): 0.5%
[2]; oral 3 mg/kg, 3 hours
  Percent Change BP (blood pressure): -19.8%
  Percent Change HR (heart rate): 11.5%
[2]; oral 3 mg/kg, 5 hours
  Percent Change BP (blood pressure): -20.5%
  Percent Change HR (heart rate): 1.5%
[2]; oral 3 mg/kg, 24 hours
  Percent Change BP (blood pressure): 5.3%
  Percent Change HR (heart rate): 6.0%
[2]; oral 10 mg/kg, 1 hour
  Percent Change BP (blood pressure): -23.8%
  Percent Change HR (heart rate): 3.0%
[2]; oral 10 mg/kg, 3 hours
  Percent Change BP (blood pressure): -22.3%
  Percent Change HR (heart rate): 12.3%
[2]; oral 10 mg/kg, 5 hours
  Percent Change BP (blood pressure): -22.0%
  Percent Change HR (heart rate): -0.8%
[2]; oral 10 mg/kg, 24 hours
  Percent Change BP (blood pressure): -2.3%
  Percent Change HR (heart rate): 23.3%
[2]; oral 30 mg/kg, 1 hour
  Percent Change BP (blood pressure): -34.0%
  Percent Change HR (heart rate): -3.8%
[2]; oral 30 mg/kg, 3 hours
  Percent Change BP (blood pressure): -31.3%
  Percent Change HR (heart rate): -11.5%
[2]; oral 30 mg/kg, 5 hours
  Percent Change BP (blood pressure): -29.3%
  Percent Change HR (heart rate): -14.8%
[2]; oral 30 mg/kg, 24 hours
  Percent Change BP (blood pressure): -14.5%
  Percent Change HR (heart rate): -1.5%
[3]
  solubility in words: very low solubility
[4]; The Lancet, May 10, 1975
  fall in blood pressure in words: profound fall in blood pressure
  toxicity in words: significant toxicity
[4]; following use of the drug, The Lancet and British Medical Journal, June 28, 1975
  collapse with loss of consciousness: Sudden collapse with loss of consciousness for periods ranging from a few minutes to one hour
